Converted amounts (≈) assume the structure as drawn. “And” between values parts separate entries of the source, which are not always exact repeats. Equal values may be shown once.
Experiments:
[1] = test system: A/New Caledonia/20/99 BVLV008 (H1N1); experiment: Plaque reduction assay (PRA) in MDCK cells; type: cell-based; details: Influenza A virus, H1N1, MDCK, read-out: EC50 PRA A/New, plaque reduction, A/New Caledonia/20/99 (H1N1)
B/Hong Kong/5/72 BVLV012 = experiment: Plaque reduction assay (PRA) in MDCK cells; type: cell-based, influenza B
Method: (§1) Madin Darby Canine Kidney (MDCK) cells are seeded into six well tissue culture plates and grown to confluency via standard methods. Influenza viruses are diluted in a minimal volume of phosphate buffered saline supplemented with 0.2% bovine serum albumin to yield an estimated titre of 50–100 plaque forming units (pfu) per well. After adsorption to the MDCK cells for one hour at 37° C. in a 5% CO2 atmosphere the viral inocula is aspirated and replaced with viral growth media (minimal Eagle's media supplemented with BSA, trypsin and insulin/transferrin/selenium at optimal concentrations) containing sufficient agar or agarose (generally 1–2%) to cause the media to gel at room temperature and at 37° C. in a 5% CO2 atmosphere until plaques develop (generally 2–4 days). Plaques can be visualised with a suitable stain (e.g. 0.4% crystal violet in formal saline) before counting.

[2] = test system: A/Victoria/3/75 BVLV017 (H3N2); experiment: Plaque reduction assay (PRA) in MDCK cells; type: cell-based
[3] = test system: B/Yamanashi/166/98 BVLV007; experiment: Plaque reduction assay (PRA) in MDCK cells; type: cell-based
Influenza B/Harbin/7/95 = experiment: Cytopathic effect (CPE) assay, inhibition of influenza virus replication in MDCK cells; type: cell-based; details: up to 72 hours, MTT
Influenza A/Sydney/5/97 = experiment: as above; type: cell-based
[4] = test system: A/Sydney/5/97 BVLV015 (H3N2); experiment: Plaque reduction assay (PRA) in MDCK cells; type: cell-based, influenza A H3N2; details: A/Sydney/5/97 (H3N2)
Method: as §1

B/Victoria/1/67 = experiment: Plaque reduction assay (PRA) in MDCK cells; type: cell-based, influenza B; details: bis(trifluoroacetic acid salt)
[5] = Rat lung retention assay (intra-tracheal dosing); type: in vivo; details: rat lung, 0.1 mg/kg intra-tracheal; for (cmpd): individual animal, bis(trifluoroacetic acid salt), 0.1 mg/kg
Method: Rodents are anaesthetised and dosed with compound of interest by the intra-tracheal route at a dose volume of 0.8 ml/kg. The rodent is then held in the vertical position until full recovery is achieved. […] Any analytical method suitable for detection of this type of compound may be used. The time at which levels of compound fall below the sensitivity of the analytical techniques identified will determine the residency time of the compound in lung tissue.
Please note that all experiments included a co-dosed internal standard, namely compound 3 of International Patent Publication No. WO 02/20514, to permit comparison. The data are expressed as a ratio with respect to this compound, the structure of which is shown below.

NC12CC3CC(CC(C3)C1)C2 [Amantadine, reference compound]
EC50 [1]: 11 ng/mL (≈ 0.0727 µM) | EC50 (B/Hong Kong/5/72 BVLV012; Influenza B virus, MDCK, read-out: EC50 PRA B/HongK): > 10000 ng/mL | EC50 ([2]; Influenza A virus, H3N2, MDCK, read-out: EC50 PRA A/Vic, plaque reduction, A/Victoria/3/75 (H3N2)): 220 ng/mL (≈ 1.45 µM) | EC50 ([3]; Influenza B virus, MDCK, read-out: EC50 PRA B/Yam, plaque reduction, B/Yamanashi/166/98): 2060 ng/mL (≈ 13.6 µM)

CC(=O)N[C@H]1[C@H]([C@H](OC(=O)NCCCCCCCCCCNC(=O)O[C@@H]([C@@H]2OC(C(=O)O)=C[C@H](NC(=N)N)[C@H]2NC(C)=O)[C@H](O)CO)[C@H](O)CO)OC(C(=O)O)=C[C@@H]1NC(=N)N.O=C(O)C(F)(F)F.O=C(O)C(F)(F)F [Example 1, (2R,3R,4S)-3-(acetylamino)-2-{(1R,18R,19R)-18-((2R,3R,4S)-3-(acetylamino)-4-{[amino(imino)methyl]amino}-6-carboxy-3,4-dihydro-2H-pyran-2-yl)-1-[(1R)-1,2-dihydroxyethyl]-19,20-dihydroxy-3,16-dioxo-2,17-dioxa-4,15-diazaicos-1-yl}-4-{[amino(imino)methyl]amino}-3,4-dihydro-2H-pyran-6-carboxylic acid bis(trifluoroacetic acid salt)]
ID50 B/Harbin/7/95 (Influenza B/Harbin/7/95): 0.0001 µg/mL | ID50 A/Sydney/5/97 (Influenza A/Sydney/5/97; up to 72 hours, MTT): 0.0002 µg/mL

CC(=O)N[C@H]1[C@H]([C@H](OC(=O)NCCCCCCCCCCCNC(=O)O[C@@H]([C@@H]2OC(C(=O)O)=C[C@H](NC(=N)N)[C@H]2NC(C)=O)[C@H](O)CO)[C@H](O)CO)OC(C(=O)O)=C[C@@H]1NC(=N)N.O=C(O)C(F)(F)F.O=C(O)C(F)(F)F [Example 2, (2R,3R,4S)-3-(acetylamino)-2-{(1R,19R,20R)-19-((2R,3R,4S)-3-(acetylamino)-4-{[amino(imino)methyl]amino}-6-carboxy-3,4-dihydro-2H-pyran-2-yl)-1-[(1R)-1,2-dihydroxyethyl]-20,21-dihydroxy-3,17-dioxo-2,18-dioxa-4,16-diazahenicos-1-yl}-4-{[amino(imino)methyl]amino}-3,4-dihydro-2H-pyran-6-carboxylic acid bis(trifluoroacetic acid salt)]
EC50 PRA A/Syd [4]: <0.0001 ng/mL | EC50 PRA B/Vic (B/Victoria/1/67): 0.04 ng/mL | EC50 PRA B/Yam ([3]; plaque reduction, B/Yamanashi/166/98): <0.0001 ng/mL | ID50 B/Harbin/7/95 (Influenza B/Harbin/7/95): 0.0001 µg/mL | ID50 A/Sydney/5/97 (Influenza A/Sydney/5/97; up to 72 hours, MTT): 0.0001 µg/mL

CC(=O)N[C@H]1[C@H]([C@H](OC(=O)NCCCCCCCCCCCCNC(=O)O[C@@H]([C@@H]2OC(C(=O)O)=C[C@H](NC(=N)N)[C@H]2NC(C)=O)[C@H](O)CO)[C@H](O)CO)OC(C(=O)O)=C[C@@H]1NC(=N)N.O=C(O)C(F)(F)F.O=C(O)C(F)(F)F [Example 3, (2R,3R,4S)-3-(acetylamino)-2-{(1R,20R,21R)-20-((2R,3R,4S)-3-(acetylamino)-4-{[amino(imino)methyl]amino}-6-carboxy-3,4-dihydro-2H-pyran-2-yl)-1-[(1R)-1,2-dihydroxyethyl]-21,22-dihydroxy-3,18-dioxo-2,19-dioxa-4,17-diazadocos-1-yl}-4-{[amino(imino)methyl]amino}-3,4-dihydro-2H-pyran-6-carboxylic acid bis(trifluoroacetic acid salt)]
EC50 PRA B/HongK (B/Hong Kong/5/72 BVLV012): <0.0001 ng/mL | EC50 PRA B/Vic (B/Victoria/1/67): 0.01 ng/mL | EC50 PRA A/Vic ([2]; plaque reduction, A/Victoria/3/75 (H3N2)): 0.0023 ng/mL | Mean (cmpd) ([5]; 48 hrs): 1117 ng/g | Mean (cmpd) ([5]; 168 hrs): 376 ng/g | (cmpd) ([5]; 48 hrs): 591 ng/g and 1845 ng/g and 914 ng/g | (cmpd) ([5]; 168 hrs): 471 ng/g and 546 ng/g and 111 ng/g | ID50 B/Harbin/7/95 (Influenza B/Harbin/7/95): 0.0001, 0.0001 μg/ml | ID50 A/Sydney/5/97 (Influenza A/Sydney/5/97; molar): 0.087 M | ID50 A/Sydney/5/97 (Influenza A/Sydney/5/97; up to 72 hours, MTT): 0.0001, 0.0001 μg/ml

— patent US7230028B2, “Dimeric compounds and their use as anti-viral agents” (priority 2001, dated 2007)
